{"source": "patent US20250375435A1", "about": "“COMPOUNDS FOR TREATING INFECTIONS” (Ohio State Innovation Foundation, priority 2022, published 2025)", "system": "Salmonella", "experiment": "Single-infection mouse model with probiotic strain added 1:1 to wild-type or fraB mutant Salmonella", "format": "in vivo, streptomycin-treated Swiss Webster mice", "details": "presence or absence of probiotic or exogenous F-Asn, day 4 post-infection", "method": "A quadruple mutant designated ASD203 (ASPII ASPI2 AfraRBDAE4 AasnB80:kan) was evaluated for use as a probiotic in combination with FraB inhibitors. This is a strain of Salmonella lacking SPI1 and SPI2 so that it cannot induce inflammation. Additionally, this strain cannot consume F-Asn due to a deletion of the entire fra island (fraR-fraBDAE). The ansB gene was also deleted as this asparaginase is capable of converting F-Asn to F-Asp. The addition of this probiotic should provide an inflammation resistant competitor to Salmonella for all nutrients except F-Asn, effectively forcing the use of F-Asn as a nutrient. […]\nMouse modeling experiments—For competition experiments, a 1:1 mixture of two different bacterial strains were inoculated intragastrically (i.g.) and then recovered from ceca to determine the competitive index (CI) of the two strains. […] CI was determined by plating on media selective for WT (LB cam) and mutant (LB kan). For the competitions with the fraB F214A mutant which is not marked, CI was determined by screening 52 individual colonies recovered from XLD plates for antibiotic resistance by patching on LB plates containing the appropriate antibiotic, thus the limit of detection on these experiments is less than two logs. […] CFU enumeration was determined by plating on media selective for WT (LB cam) and the mutant (LB kan). […]", "data": [{"substance": "fructose-asparagine [F-Asn]", "values": [{"measurement": "numbers of fraB mutant bacteria recovered", "value": "not significantly different"}]}]}
